Experimental data reported in patent US20020137929A1, “1 - (3-heterocyclylphenyl) isothiourea, -isourea, -guanidine and -amidine herbicidal agents” (Intellectual Property Department, BASF Aktiengesellschaft, priority 1998, published 2002).

What was measured:
ABUTH (Velvetleaf) = assay: Postemergence herbicidal evaluation; format: in vivo, Abutilon theophrasti; details: postemergence
How it was run: (§1)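 Rate range approx. 0.0156–0.500 kg/ha. Foliar application at 40 psi to ~2-week seedlings; surfactant 0.5% TWEEN 20 in 50/50 acetone/water. Evaluation 4–5 wk post-treatment by 0–9 visual injury score, means of replicate tests.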

AMBEL (Ragweed, Common) [1] = assay: Postemergence herbicidal evaluation; format: in vivo, Ambrosia artemisifolia; details: postemergence
How it was run: as §1

[2] = test system: CHEAL (Lambsquarters, Common); assay: Postemergence herbicidal evaluation; format: in vivo, Chenopodium album; details: postemergence
How it was run: as §1

ECHCG (Barnyardgrass) = assay: Postemergence herbicidal evaluation; format: in vivo, Echinochloa crus-galli; details: postemergence
How it was run: as §1

[3] = test system: GLXMAW (Soybean, Williams); assay: Postemergence herbicidal evaluation; format: in vivo, Glycine max, (L.) Merr. cv Williams; details: postemergence
How it was run: as §1

ORYSAT (Rice, Tebonnet) = assay: Postemergence herbicidal evaluation; format: in vivo, Oryza sativa, (L.) Tebonnet; details: postemergence
How it was run: as §1

ZEAMX (Corn, Field) = assay: Postemergence herbicidal evaluation; format: in vivo, Zea mays; details: postemergence
How it was run: as §1

AMBEL (Ragweed, Common) [4] = assay: Preemergence herbicidal evaluation; format: in vivo, Ambrosia artemisifolia; details: rated 4-5 weeks after treatment
How it was run: (§2)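 Seeds were mixed with potting soil and planted on about one inch of soil, then sprayed with test compound in aqueous acetone at about 0.0156 to 0.500 kg per hectare. Plants grew under standard greenhouse care and were visually rated 0-9 against untreated controls 4-5 weeks post-treatment.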

CASOB (Sicklepod) = assay: Preemergence herbicidal evaluation; format: in vivo, Cassia obtusifolia; details: rated 4-5 weeks after treatment
How it was run: as §2

[5] = test system: CHEAL (Lambsquarters, Common); assay: Preemergence herbicidal evaluation; format: in vivo, Chenopodium album; details: rated 4-5 weeks after treatment
How it was run: as §2

GALAP (Galium) = assay: Preemergence herbicidal evaluation; format: in vivo, Galium aparine; details: rated 4-5 weeks after treatment
How it was run: as §2

CYPSE (Flatsedge) [6] = assay: Preemergence weed control under flooded paddy conditions; format: in vivo, Cyperus serotinus; details: rated 3-4 weeks after treatment
How it was run: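 Using flooded silt loam (water 1.5 to 3 cm deep), seeds sown in the top 0.5 cm were exposed preemergence to compound pipetted into the flood at about 0.0313 to 0.500 kg/ha. Effects were scored 0-9 by eye three to four weeks later.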

CYPIR (Rice Flatsedge) = assay: Postemergence weed control under flooded paddy conditions; format: in vivo, Cyperus iria; details: postemergence weeds, 3-4 weeks after treatment
How it was run: (§3)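 Containers holding 3–5 cm weeds and rice at 1.5–2.5 leaves are flooded to 1.5–3 cm above soil. Compound in 50/50 v/v aqueous/acetone is then added directly to the water, about 0.0313–0.500 kg/ha. Plants are kept in the greenhouse and rated 0–9 visually at 3–4 weeks.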

CYPSE (Flatsedge) [7] = assay: as above; format: in vivo, Cyperus serotinus; details: postemergence weeds, 3-4 weeks after treatment
How it was run: as §3

CCOC(=O)CN1C(=O)C(C)SC1=Nc1cc(-n2c(=O)cc(C(F)(F)F)n(C)c2=O)c(F)cc1Cl (stereo not drawn) [Compound 12]
8.0: GLXMAW herbicidal rating ([3]; rate 0.1250 kg/ha) | ZEAMX herbicidal rating (ZEAMX (Corn, Field); rate 0.1250 kg/ha)
8.5: GLXMAW herbicidal rating ([3]; rate 0.0625 kg/ha)
9.0: ABUTH herbicidal rating (ABUTH (Velvetleaf); rate 0.0156 kg/ha) | ABUTH herbicidal rating (ABUTH (Velvetleaf); rate 0.0313 kg/ha) | ABUTH herbicidal rating (ABUTH (Velvetleaf); rate 0.0625 kg/ha) | ABUTH herbicidal rating (ABUTH (Velvetleaf); rate 0.1250 kg/ha) | AMBEL herbicidal rating (AMBEL (Ragweed, Common) [1]; rate 0.0313 kg/ha) | AMBEL herbicidal rating (AMBEL (Ragweed, Common) [1]; rate 0.1250 kg/ha) | CHEAL herbicidal rating ([2]; rate 0.0156 kg/ha) | CHEAL herbicidal rating ([2]; rate 0.0313 kg/ha) | CHEAL herbicidal rating ([2]; rate 0.0625 kg/ha) | CHEAL herbicidal rating ([2]; rate 0.1250 kg/ha) | ECHCG herbicidal rating (ECHCG (Barnyardgrass); rate 0.1250 kg/ha) | AMBEL preemergence herbicidal rating (AMBEL (Ragweed, Common) [4]; rate 0.0625 kg/ha) | AMBEL preemergence herbicidal rating (AMBEL (Ragweed, Common) [4]; rate 0.1250 kg/ha) | AMBEL preemergence herbicidal rating (AMBEL (Ragweed, Common) [4]; rate 0.2500 kg/ha) | CHEAL preemergence herbicidal rating ([5]; rate 0.0156 kg/ha) | CHEAL preemergence herbicidal rating ([5]; rate 0.0313 kg/ha) | CHEAL preemergence herbicidal rating ([5]; rate 0.0625 kg/ha) | CHEAL preemergence herbicidal rating ([5]; rate 0.1250 kg/ha) | CHEAL preemergence herbicidal rating ([5]; rate 0.2500 kg/ha) | GALAP preemergence herbicidal rating (GALAP (Galium); rate 0.0625 kg/ha) | GALAP preemergence herbicidal rating (GALAP (Galium); rate 0.1250 kg/ha) | GALAP preemergence herbicidal rating (GALAP (Galium); rate 0.2500 kg/ha)
4.5: AMBEL preemergence herbicidal rating (AMBEL (Ragweed, Common) [4]; rate 0.0313 kg/ha) | CASOB preemergence herbicidal rating (CASOB (Sicklepod); rate 0.0625 kg/ha) | CASOB preemergence herbicidal rating (CASOB (Sicklepod); rate 0.1250 kg/ha)
0.0: ECHCG herbicidal rating (ECHCG (Barnyardgrass); rate 0.0156 kg/ha) | AMBEL preemergence herbicidal rating (AMBEL (Ragweed, Common) [4]; rate 0.0156 kg/ha) | CASOB preemergence herbicidal rating (CASOB (Sicklepod); rate 0.0156 kg/ha) | CASOB preemergence herbicidal rating (CASOB (Sicklepod); rate 0.0313 kg/ha) | GALAP preemergence herbicidal rating (GALAP (Galium); rate 0.0156 kg/ha) | GALAP preemergence herbicidal rating (GALAP (Galium); rate 0.0313 kg/ha) | Herbicidal rating CYPIR (CYPIR (Rice Flatsedge); rate 0.0313 kg/ha) | Herbicidal rating CYPIR (CYPIR (Rice Flatsedge); rate 0.0625 kg/ha) | Herbicidal rating CYPIR (CYPIR (Rice Flatsedge); rate 0.2500 kg/ha)
6.0: CASOB preemergence herbicidal rating (CASOB (Sicklepod); rate 0.2500 kg/ha) | Herbicidal rating CYPSE (CYPSE (Flatsedge) [6]; 0.2500 kg/ha) | Herbicidal rating CYPSE (CYPSE (Flatsedge) [7]; rate 0.2500 kg/ha)
7.0: AMBEL herbicidal rating (AMBEL (Ragweed, Common) [1]; rate 0.0156 kg/ha) | AMBEL herbicidal rating (AMBEL (Ragweed, Common) [1]; rate 0.0625 kg/ha) | GLXMAW herbicidal rating ([3]; rate 0.0313 kg/ha) | ZEAMX herbicidal rating (ZEAMX (Corn, Field); rate 0.0313 kg/ha)
7.5: ZEAMX herbicidal rating (ZEAMX (Corn, Field); rate 0.0625 kg/ha)
3.0: ORYSAT herbicidal rating (ORYSAT (Rice, Tebonnet); rate 0.0313 kg/ha) | ORYSAT herbicidal rating (ORYSAT (Rice, Tebonnet); rate 0.0625 kg/ha) | Herbicidal rating CYPSE (CYPSE (Flatsedge) [6]; 0.0625 kg/ha) | Herbicidal rating CYPSE (CYPSE (Flatsedge) [7]; rate 0.0625 kg/ha)
1.0: ECHCG herbicidal rating (ECHCG (Barnyardgrass); rate 0.0313 kg/ha) | Herbicidal rating CYPSE (CYPSE (Flatsedge) [6]; 0.0313 kg/ha) | Herbicidal rating CYPSE (CYPSE (Flatsedge) [6]; 0.1250 kg/ha) | Herbicidal rating CYPIR (CYPIR (Rice Flatsedge); rate 0.1250 kg/ha) | Herbicidal rating CYPSE (CYPSE (Flatsedge) [7]; rate 0.0313 kg/ha) | Herbicidal rating CYPSE (CYPSE (Flatsedge) [7]; rate 0.1250 kg/ha)
6.5: ZEAMX herbicidal rating (ZEAMX (Corn, Field); rate 0.0156 kg/ha)
2.5: ORYSAT herbicidal rating (ORYSAT (Rice, Tebonnet); rate 0.0156 kg/ha)
4.0: ECHCG herbicidal rating (ECHCG (Barnyardgrass); rate 0.0625 kg/ha)
5.0: GLXMAW herbicidal rating ([3]; rate 0.0156 kg/ha) | ORYSAT herbicidal rating (ORYSAT (Rice, Tebonnet); rate 0.1250 kg/ha)
